Experimental data as given in US10442830B2, “Synthesis of monoethers of sugar comprising a long alkyl chain and uses thereof as a surfactant” (TEREOS STARCH & SWEETENERS BELGIUM, priority 2014, dated 2019).

Experiment: Surface tension of aqueous solutions (Du Noüy-Padday method, platinum rod probe)
Format: physicochemical
Details: for Minimum hydrotrope concentration (MHC) or critical micelle concentration (CMC) / surface tension of water (γsat): in water at 25° C.; for surface tension of water (γsat): saturation surface tension; for concentration necessary to lower the surface tension / surface tension reached at the stated concentration: water
Procedure: The term “surfactant” or “surface-active agent” denotes a compound that reduces surface tension when it is dissolved in water or in an aqueous medium, or that reduces the interfacial tension between two liquids, between a liquid and a solid or between a liquid and a gas. As a general rule, the surface-active properties of a compound may be measured by the plate method using a platinum rod as probe (Du Nouy-Padday method, as described in J F Padday, A R Pitt, R M Pashley, J. Chem. Soc. Faraday. Trans 1, 1975, 71, 1919-1931). The Du Nouy-Padday method is used for measuring the equilibrium of surface tension or of dynamic surface tension at the air/liquid interface.
Surface tension was measured at (25.0±0.1)° C. with a Krüss K100MK2 tensiometer using a platinum rod as probe. A total of 1.0 ml of water was added to the measuring vessel. When the surface tension is stable (standard deviation of the last five measurements of 0.2 mN/m), manual dilution is carried out with a concentrated solution of surfactant to its limit of solubility while maintaining constant volume.
In the present study, the general characteristics of the surfactants were evaluated by measuring the reduction in saturated surface tension (γsat) and the critical micelle concentration (CMC) of the mixture (3+4) previously obtained in water at 25° C. The surface-active properties were compared against those of the pure compounds.
The surface tension of aqueous solutions containing increasing concentrations of each of the compounds was measured by the Du Noüy-Padday method using a platinum rod as probe (method described in J. F. Padday, A. R. Pitt, R. M. Pashley, J. Chem. Soc. Faraday. Trans 1, 1975, 71, 1919-1931). The data are presented graphically in FIG. 1, showing analysis of the surface tension as a function of the concentration of the sorbitan ether derivatives ([…] (black diamonds), C12EthSorb (black lozenges), C5/C12EthSorb (black triangles)). The value of the critical micelle concentration (CMC) is shown with a small arrow for C5EthSorb.
The general characteristics of the surfactants were evaluated as in example 4 by measuring the reduction in saturated surface tension (γsat) and the critical micelle concentration (CMC) of the mixture (C5/C12 MeGlu) obtained previously in water at 25° C. The surface-active properties were compared with pure compounds.
The surface tension of aqueous solutions containing increasing concentrations of each of the compounds was measured by the plate method using a platinum rod as probe (Du Nouy-Padday method as described in J F Padday, A R Pitt, R M Pashley, J. Chem. Soc. Faraday. Trans 1, 1975, 71, 1919-1931). The data are shown in FIG. 2, showing analysis of the surface tension from the concentration of the ether derivatives of methyl glucoside (C5EthMeGlu (black star), C12EthMeGlu (black diamond), C5/C12EthMeGlu (black cross)).

[1] = ether derivatives of methyl glucoside

Minimum hydrotrope concentration (MHC) or critical micelle concentration (CMC) [1] [mg/L]	surface tension of water (γsat) [1] [mN/m]	Minimum hydrotrope concentration (MHC) or critical micelle concentration (CMC) (sorbitan ether derivatives) [mg/L]	surface tension of water (γsat) (sorbitan ether derivatives) [mN/m]	concentration necessary to lower the surface tension (sorbitan ethers, to lower the surface tension by 31 mN/m) [µg/mL]	surface tension reached at the stated concentration (sorbitan ethers) [mN/m]	concentration necessary to lower the surface tension (methyl glucoside ethers) [µg/mL]	surface tension reached at the stated concentration (methyl glucoside ethers) [mN/m]	Substance
4.5	28	–	–	–	–	–	–	(6+4)-O-dodecyl-α-D-methyl glucopyranoside [Product C12EthMeGlu]
–	–	30.2	31	–	–	–	–	(6+5+3−)-dodecyl sorbitan [Product C12EthSorb]
–	–	1779	32	1179	31	–	–	pentyl sorbitan [Product C5EthSorb]
8199	32	–	–	–	–	8199	32	pentyl α-D-methyl glucopyranoside [Product C5EthMeGlu]
